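Dose response: 5 concentrations. Exposure: 48 h. Format: 96-well plates. Endpoint: linear interpolation; highest concentration if not reached. TGI: concentration producing complete growth inhibition.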
Experiments:
Test in all cases: NCI tumour cell line growth inhibition, 48 h
SK-MEL-2 melanoma = system: SK-MEL-2 melanoma
NCI-H460 lung = system: NCI-H460 lung
K-562 leukemia = system: K-562 leukemia
M14 melanoma = system: M14 melanoma
IGROV1 ovarian = system: IGROV1 ovarian
XF 498 CNS = system: XF 498 CNS
SW-620 colon = system: SW-620 colon
OVCAR-8 ovarian = system: OVCAR-8 ovarian
CAKI-1 renal = system: CAKI-1 renal
OVCAR-4 ovarian = system: OVCAR-4 ovarian
UACC-257 melanoma = system: UACC-257 melanoma
KM12 colon = system: KM12 colon
SNB-75 CNS = system: SNB-75 CNS
RXF-631 renal = system: RXF-631 renal
RXF 393 renal = system: RXF 393 renal
OVCAR-5 ovarian = system: OVCAR-5 ovarian
COLO 205 colon = system: COLO 205 colon
HCC-2998 colon = system: HCC-2998 colon
NCI-H226 lung = system: NCI-H226 lung
HL-60(TB) leukemia = system: HL-60(TB) leukemia
HOP-92 NSCLC = system: HOP-92 NSCLC
CCRF-CEM leukemia = system: CCRF-CEM leukemia
HOP-18 NSCLC = system: HOP-18 NSCLC
LXFL 529 NSCLC = system: LXFL 529 NSCLC
OVCAR-3 ovarian = system: OVCAR-3 ovarian
M19-MEL melanoma = system: M19-MEL melanoma
UACC-62 melanoma = system: UACC-62 melanoma
TK-10 renal = system: TK-10 renal
SN12C renal = system: SN12C renal
SNB-78 CNS = system: SNB-78 CNS
SNB-19 CNS = system: SNB-19 CNS
SR leukemia = system: SR leukemia
SK-OV-3 ovarian = system: SK-OV-3 ovarian
EKVX NSCLC = system: EKVX NSCLC
UO-31 renal = system: UO-31 renal
HOP-62 NSCLC = system: HOP-62 NSCLC
A549 NSCLC = system: A549 NSCLC
NCI-H23 lung = system: NCI-H23 lung
RPMI-8226 leukemia = system: RPMI-8226 leukemia
NCI-H522 lung = system: NCI-H522 lung
LOX IMVI melanoma = system: LOX IMVI melanoma
HCT-116 colon = system: HCT-116 colon
HCT-15 colon = system: HCT-15 colon
ACHN renal = system: ACHN renal
DMS 273 small cell lung = system: DMS 273 small cell lung
786-0 renal = system: 786-0 renal
SF-539 CNS = system: SF-539 CNS
A498 renal = system: A498 renal
SK-MEL-28 melanoma = system: SK-MEL-28 melanoma
SF-295 CNS = system: SF-295 CNS
DMS 114 small cell lung = system: DMS 114 small cell lung
KM20L2 colon = system: KM20L2 colon
U251 CNS = system: U251 CNS
SF-268 CNS = system: SF-268 CNS
HT29 colon = system: HT29 colon
DLD-1 colon = system: DLD-1 colon
SK-MEL-5 melanoma = system: SK-MEL-5 melanoma
MOLT-4 leukemia = system: MOLT-4 leukemia
MALME-3M melanoma = system: MALME-3M melanoma
SN12K1 renal = system: SN12K1 renal
MCF7 breast = system: MCF7 breast
P388/ADR leukemia = system: P388/ADR leukemia
NCI/ADR-RES ovarian = system: NCI/ADR-RES ovarian

Work on `[O-][n+]1c(-c2ccccc2)oc2ccccc21` yielded a TGI (SK-MEL-2 melanoma) of 40.4 µM, a TGI (NCI-H460 lung) of 20.2 µM and a TGI (K-562 leukemia) greater than 100 µM. It also gave a TGI (M14 melanoma) of 24.8 µM, a TGI (IGROV1 ovarian) greater than 100 µM and a TGI (XF 498 CNS) greater than 100 µM. For the same molecule, the TGI (SW-620 colon) was 39.1 µM, the TGI (OVCAR-8 ovarian) was greater than 100 µM and the TGI (CAKI-1 renal) was greater than 55.7 µM. For the same molecule, the TGI (OVCAR-4 ovarian) was greater than 68 µM, the TGI (UACC-257 melanoma) was 22.6 µM and the TGI (KM12 colon) was greater than 100 µM. For the same molecule, the TGI (SNB-75 CNS) was 32.7 µM, the TGI (RXF-631 renal) was greater than 100 µM and the TGI (RXF 393 renal) was 55.6 µM. It also gave a TGI (OVCAR-5 ovarian) of 67.1 µM, a TGI (COLO 205 colon) of 33.6 µM and a TGI (HCC-2998 colon) of 37.8 µM. For the same molecule, the TGI (NCI-H226 lung) was greater than 100 µM, the TGI (HL-60(TB) leukemia) was 79.9 µM and the TGI (HOP-92 NSCLC) was greater than 100 µM. It also gave a TGI (CCRF-CEM leukemia) greater than 100 µM, a TGI (HOP-18 NSCLC) of 20.1 µM and a TGI (LXFL 529 NSCLC) greater than 94.4 µM. The TGI (OVCAR-3 ovarian) was 65.9 µM, the TGI (M19-MEL melanoma) was 3.59 µM and the TGI (UACC-62 melanoma) was 23.1 µM. For the same molecule, the TGI (TK-10 renal) was 47.7 µM, the TGI (SN12C renal) was 29 µM and the TGI (SNB-78 CNS) was 97.1 µM. It also gave a TGI (SNB-19 CNS) greater than 65.1 µM, a TGI (SR leukemia) greater than 100 µM and a TGI (SK-OV-3 ovarian) greater than 100 µM. It also gave a TGI (EKVX NSCLC) of 63 µM, a TGI (UO-31 renal) of 40.3 µM and a TGI (HOP-62 NSCLC) of 35.2 µM. It also gave a TGI (A549 NSCLC) of 17.9 µM, a TGI (NCI-H23 lung) of 38.7 µM and a TGI (RPMI-8226 leukemia) greater than 69.2 µM. It also gave a TGI (NCI-H522 lung) of 17.5 µM, a TGI (LOX IMVI melanoma) of 15.7 µM and a TGI (HCT-116 colon) of 41.9 µM. It also gave a TGI (HCT-15 colon) of 24.3 µM, a TGI (ACHN renal) of 39.4 µM and a TGI (DMS 273 small cell lung) of 28 µM. The TGI (786-0 renal) was 62.4 µM, the TGI (SF-539 CNS) was 31.5 µM and the TGI (A498 renal) was 34.8 µM. For the same molecule, the TGI (SK-MEL-28 melanoma) was 36.6 µM, the TGI (SF-295 CNS) was 27.6 µM and the TGI (DMS 114 small cell lung) was 16.4 µM. The TGI (KM20L2 colon) was 43.1 µM, the TGI (U251 CNS) was greater than 85.8 µM and the TGI (SF-268 CNS) was greater than 100 µM. The TGI (HT29 colon) was 59.1 µM, the TGI (DLD-1 colon) was greater than 59.5 µM and the TGI (SK-MEL-5 melanoma) was 6.81 µM. It also gave a TGI (MOLT-4 leukemia) greater than 100 µM and a TGI (MALME-3M melanoma) of 28.1 µM.

`O=C1c2cccc3cc4ccccc4c(c23)C(=O)N1CCNCCN1C(=O)c2cccc3cc4ccccc4c(c23)C1=O` was tested, and the TGI (SK-MEL-2 melanoma) was 3.15 µM, the TGI (NCI-H460 lung) was 0.278 µM and the TGI (K-562 leukemia) was 1.47 µM. For the same molecule, the TGI (IGROV1 ovarian) was 3.56 µM, the TGI (SN12K1 renal) was 6.96 µM and the TGI (XF 498 CNS) was 0.82 µM. It also gave a TGI (SW-620 colon) of 1.87 µM, a TGI (OVCAR-8 ovarian) of 2.31 µM and a TGI (CAKI-1 renal) of 1.04 µM. For the same molecule, the TGI (OVCAR-4 ovarian) was 2.14 µM, the TGI (UACC-257 melanoma) was 2.74 µM and the TGI (SNB-75 CNS) was 1.27 µM. For the same molecule, the TGI (RXF 393 renal) was 1.82 µM, the TGI (OVCAR-5 ovarian) was 1.77 µM and the TGI (COLO 205 colon) was 2.22 µM. It also gave a TGI (HCC-2998 colon) of 2.23 µM, a TGI (NCI-H226 lung) of 6.12 µM and a TGI (HL-60(TB) leukemia) of 0.619 µM. The TGI (HOP-92 NSCLC) was 1.75 µM, the TGI (CCRF-CEM leukemia) was 1.04 µM and the TGI (HOP-18 NSCLC) was 0.879 µM. The TGI (OVCAR-3 ovarian) was 2.41 µM, the TGI (M19-MEL melanoma) was 1.78 µM and the TGI (UACC-62 melanoma) was 1.13 µM. The TGI (SN12C renal) was 1.59 µM, the TGI (SNB-78 CNS) was 1.82 µM and the TGI (SNB-19 CNS) was 2.11 µM. For the same molecule, the TGI (MCF7 breast) was 5.17 µM, the TGI (SK-OV-3 ovarian) was 5.8 µM and the TGI (EKVX NSCLC) was 2.23 µM. It also gave a TGI (UO-31 renal) of 1.57 µM, a TGI (P388/ADR leukemia) of 0.611 µM and a TGI (HOP-62 NSCLC) of 4.92 µM. For the same molecule, the TGI (A549 NSCLC) was 0.982 µM, the TGI (NCI-H23 lung) was 1.21 µM and the TGI (NCI-H522 lung) was 3.6 µM. The TGI (LOX IMVI melanoma) was 1.27 µM, the TGI (HCT-116 colon) was 1.98 µM and the TGI (HCT-15 colon) was 1.53 µM. It also gave a TGI (DMS 273 small cell lung) of 1 µM, a TGI (SF-539 CNS) of 2.2 µM and a TGI (A498 renal) of 2.26 µM. The TGI (SK-MEL-28 melanoma) was 2.65 µM, the TGI (SF-295 CNS) was 0.906 µM and the TGI (DMS 114 small cell lung) was 0.78 µM. For the same molecule, the TGI (NCI/ADR-RES ovarian) was 3.11 µM, the TGI (KM20L2 colon) was 2.22 µM and the TGI (U251 CNS) was 1.24 µM. For the same molecule, the TGI (SF-268 CNS) was 2.55 µM, the TGI (HT29 colon) was 1.69 µM and the TGI (DLD-1 colon) was 3.8 µM. For the same molecule, the TGI (SK-MEL-5 melanoma) was 1.84 µM and the TGI (MALME-3M melanoma) was 1.77 µM.

For `Cc1cccc(C)c1NC(=O)CCC(=O)NNc1nnc(C)n1N`, the TGI (SK-MEL-2 melanoma) was greater than 100 µM, the TGI (NCI-H460 lung) was greater than 100 µM and the TGI (K-562 leukemia) was greater than 100 µM. The TGI (M14 melanoma) was greater than 100 µM, the TGI (IGROV1 ovarian) was greater than 100 µM and the TGI (XF 498 CNS) was greater than 100 µM. For the same molecule, the TGI (SW-620 colon) was greater than 100 µM, the TGI (OVCAR-8 ovarian) was greater than 100 µM and the TGI (CAKI-1 renal) was greater than 100 µM. For the same molecule, the TGI (OVCAR-4 ovarian) was greater than 100 µM, the TGI (UACC-257 melanoma) was greater than 100 µM and the TGI (KM12 colon) was greater than 100 µM. The TGI (SNB-75 CNS) was greater than 100 µM, the TGI (RXF-631 renal) was greater than 100 µM and the TGI (RXF 393 renal) was greater than 100 µM. For the same molecule, the TGI (OVCAR-5 ovarian) was greater than 100 µM, the TGI (COLO 205 colon) was greater than 100 µM and the TGI (HCC-2998 colon) was greater than 100 µM. For the same molecule, the TGI (NCI-H226 lung) was greater than 100 µM, the TGI (HL-60(TB) leukemia) was greater than 100 µM and the TGI (HOP-92 NSCLC) was greater than 100 µM. It also gave a TGI (CCRF-CEM leukemia) greater than 100 µM, a TGI (HOP-18 NSCLC) greater than 100 µM and a TGI (LXFL 529 NSCLC) greater than 100 µM. For the same molecule, the TGI (OVCAR-3 ovarian) was greater than 100 µM, the TGI (M19-MEL melanoma) was greater than 100 µM and the TGI (UACC-62 melanoma) was greater than 100 µM. For the same molecule, the TGI (TK-10 renal) was greater than 100 µM, the TGI (SN12C renal) was greater than 100 µM and the TGI (SNB-78 CNS) was greater than 100 µM. It also gave a TGI (SNB-19 CNS) greater than 100 µM, a TGI (SR leukemia) greater than 100 µM and a TGI (SK-OV-3 ovarian) greater than 100 µM. It also gave a TGI (EKVX NSCLC) greater than 100 µM, a TGI (UO-31 renal) greater than 100 µM and a TGI (HOP-62 NSCLC) greater than 100 µM. It also gave a TGI (A549 NSCLC) greater than 100 µM, a TGI (NCI-H23 lung) greater than 100 µM and a TGI (RPMI-8226 leukemia) greater than 100 µM. The TGI (NCI-H522 lung) was greater than 100 µM, the TGI (LOX IMVI melanoma) was greater than 100 µM and the TGI (HCT-116 colon) was greater than 100 µM. The TGI (HCT-15 colon) was greater than 100 µM, the TGI (ACHN renal) was greater than 100 µM and the TGI (DMS 273 small cell lung) was greater than 100 µM. It also gave a TGI (786-0 renal) greater than 100 µM, a TGI (SF-539 CNS) greater than 100 µM and a TGI (A498 renal) greater than 100 µM. For the same molecule, the TGI (SK-MEL-28 melanoma) was greater than 100 µM, the TGI (SF-295 CNS) was greater than 100 µM and the TGI (DMS 114 small cell lung) was greater than 100 µM. The TGI (KM20L2 colon) was greater than 100 µM, the TGI (U251 CNS) was greater than 100 µM and the TGI (SF-268 CNS) was greater than 100 µM. It also gave a TGI (HT29 colon) greater than 100 µM, a TGI (DLD-1 colon) greater than 100 µM and a TGI (SK-MEL-5 melanoma) greater than 100 µM. It also gave a TGI (MOLT-4 leukemia) greater than 100 µM and a TGI (MALME-3M melanoma) greater than 100 µM.
